Assays:
[1] = Drug level in baboon plasma assessed as unmetabolized fractions after 60 mins; type: ADME, cell-free; conditions: papio hamadryas, read-out: Activity
[2] = Drug level in baboon plasma assessed as unmetabolized fractions after 4 mins; type: ADME, cell-free; conditions: papio hamadryas, read-out: Activity
[3] = Drug level in baboon plasma assessed as unmetabolized fractions after 2 mins; type: ADME, cell-free; conditions: papio hamadryas, read-out: Activity
[4] = Ratio of drug uptake in skull to thalamus in baboon at 1.2 mCi after 115 mins; type: ADME, tissue-based; conditions: papio hamadryas, in vivo
[5] = Drug level in baboon plasma assessed as unmetabolized fractions after 12 mins; type: ADME, cell-free; conditions: papio hamadryas, read-out: Activity
[6] = Ratio of drug uptake in skull to cingulate in baboon at 1.2 mCi after 115 mins; type: ADME; conditions: papio hamadryas, in vivo
[7] = Ratio of drug uptake in skull to putamen in baboon at 1.2 mCi after 115 mins; type: ADME; conditions: papio hamadryas, in vivo
[8] = Ratio of drug uptake in skeleton to heart in Sprague-Dawley rat at 0.2 mCi, iv after 112 mins; type: ADME, organism-based; conditions: in vivo
[9] = Ratio of drug uptake in skull to caudate in baboon at 1.2 mCi after 115 mins; type: ADME; conditions: papio hamadryas, in vivo
[10] = Ratio of drug uptake in skeleton to brain in Sprague-Dawley rat at 0.2 mCi, iv after 112 mins; type: ADME, organism-based; conditions: in vivo
[11] = Ratio of drug uptake in skull to hippocampus in baboon at 1.2 mCi after 115 mins; type: ADME, tissue-based; conditions: papio hamadryas, in vivo
[12] = Ratio of drug uptake in skull to cerebellum in baboon at 1.2 mCi after 115 mins; type: ADME, tissue-based; conditions: papio hamadryas, in vivo
[13] = Drug level in baboon plasma assessed as unmetabolized fractions after 30 mins; type: ADME, cell-free; conditions: papio hamadryas, read-out: Activity
[14] = Ratio of drug uptake in skeleton to cerebellum in Sprague-Dawley rat at 0.2 mCi, iv after 112 mins; type: ADME, organism-based; conditions: in vivo

remaining at 1 h [1]: 17% | remaining at 4 min [2]: 84.9% | remaining at 2 min [3]: 93.2% | Ratio [4]: 1.6 | remaining at 0.2 h [5]: 47.5% | Ratio [6]: 1.43 | Ratio [7]: 1.46 | Ratio [8]: 0.7 | Ratio [9]: 1.48 | Ratio [10]: 0.45 | Ratio [11]: 1.41 | Ratio [12]: 1.2 | remaining at 0.5 h [13]: 30.2% | Ratio [14]: 0.5
Structure (SMILES): Cc1ccc(-c2cc(C(F)(F)[18F])nn2-c2ccc(S(N)(=O)=O)cc2)cc1
